Target: T1, PDK1 kinase (Homo sapiens, UniProt O15530)
T1 sequence (O15530 1-556): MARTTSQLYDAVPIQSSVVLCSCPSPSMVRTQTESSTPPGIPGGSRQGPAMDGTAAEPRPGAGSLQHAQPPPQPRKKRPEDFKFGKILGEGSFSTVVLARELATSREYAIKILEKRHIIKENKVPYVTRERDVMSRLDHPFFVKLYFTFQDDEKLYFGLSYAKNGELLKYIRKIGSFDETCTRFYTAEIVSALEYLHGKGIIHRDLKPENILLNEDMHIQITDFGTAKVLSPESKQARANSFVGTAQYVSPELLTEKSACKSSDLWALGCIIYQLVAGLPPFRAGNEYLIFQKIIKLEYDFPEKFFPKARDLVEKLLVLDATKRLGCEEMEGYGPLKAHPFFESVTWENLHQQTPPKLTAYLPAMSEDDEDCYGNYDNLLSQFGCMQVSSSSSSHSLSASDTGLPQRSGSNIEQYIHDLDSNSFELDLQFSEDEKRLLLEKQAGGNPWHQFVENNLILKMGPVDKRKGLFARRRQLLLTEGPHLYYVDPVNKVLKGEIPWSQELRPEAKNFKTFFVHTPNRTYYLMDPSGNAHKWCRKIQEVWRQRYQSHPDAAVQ
Assay: PDK1 Kinase Alpha Screen Assay
Assay type: biochemical
Conditions: Table 1; 10 μM ATP, 50 nM PDK1-4 peptide
Method: Reagents/Concentrations: The PDK1-4 peptide substrate, biotin-[…]-NH2, (SEQ ID NO: 1), was purchased from the Tufts University Core Facility. The final concentration of PDK1-4 peptide substrate was 50 nM. The ATP substrate (adenosine-[…] triphosphate) was purchased from Roche Diagnostics. The final concentration of ATP substrate was 10 μM. Phospho-(Ser/Thr) PKA substrate antibody was purchased from Cell Signaling Technology. The final concentration of antibody was 0.3 mg/mL. The Alpha Screen Protein A detection kit containing donor and acceptor beads was purchased from PerkinElmer Life Sciences. The final concentration of both donor and acceptor beads was 25 μg/mL. Alpha Screen was used for detection. The biotinylated-PDK1-4 peptide was phosphorylated by PDK1 kinase using the ATP substrate. The biotinylated-PDK1-4 peptide substrate was bound to the streptavidin coated donor bead. The antibody was bound to the protein A coated acceptor bead. The antibody bound to the phosphorylated form of the biotinylated PDK-1 peptide substrate, bringing the donor and acceptor beads into close proximity. Laser irradiation of the donor bead at 680 nm generated a flow of short-lived singlet oxygen molecules. When the donor and acceptor beads were in close proximity, the reactive oxygen generated by the irradiation of the donor beads initiated a luminescence/fluorescence cascade in the acceptor beads. This process led to a highly amplified signal with output in the 530-620 nm range. Assays were carried out in 50 mM Tris, pH=7.5, 10 mM MgCl2, 0.1% BSA, 0.01% Tween-20, 2 mM dithiolthreitol, 2.5% dimethyl sulfoxide. Reactions were stopped by adding 50 mM Tris, pH=7.5, 90 mM EDTA, 0.1% BSA, 0.01% Tween-20.
Procedure: To 10 μl, of PDK1-4 peptide, […] of test compound in dimethyl sulfoxide was added. PDK1 kinase and ATP were mixed, and 10 μL of the PDK1 kinase/ATP mix was added to start the reaction. The reaction was allowed to proceed for 3-18 hours. The reactions were then stopped by adding 10 μL of the EDTA-containing stop buffer. Beads were mixed with antibody, and 25 μL of the bead/antibody mix was then added to the stopped reactions. Plates were incubated at room temperature overnight to allow for detection development before being read. The assay was run in a 384-well format plate.

IC50, < 5 µM:
COc1cc(Br)cc2cnc(Nc3ccc(S(N)(=O)=O)cc3)nc12 [Example 1, 4-(6-Bromo-8-methoxyquinazolin-2-ylamino)benzenesulfonamide]
C#Cc1cc(OC)c2nc(Nc3ccc(S(N)(=O)=O)cc3)ncc2c1 [Example 2, 4-(6-Ethynyl-8-methoxyquinazolin-2-ylamino)benzenesulfonamide]
CCc1cc(OC)c2nc(Nc3ccc(S(N)(=O)=O)cc3)ncc2c1 [Example 3, 4-(6-Ethyl-8-methoxyquinazolin-2-ylamino)benzenesulfonamide]
COc1cc(C#N)cc2cnc(Nc3ccc(S(N)(=O)=O)cc3)nc12 [Example 4, 4-(6-cyano-8-methoxyquinazolin-2-ylamino)benzene-sulfonamide]
COc1cc(C)cc2cnc(Nc3ccc(S(N)(=O)=O)cc3)nc12 [Example 5, 4-(8-Methoxy-6-methylquinazolin-2-ylamino)benzenesulfonamide]
CC(=O)Nc1cc(CN(C)C)cc(Nc2ncc3cc(Br)cc(Cl)c3n2)c1 [Example 6, N-(3-(6-Bromo-8-chloroquinazolin-2-ylamino)-5-((dimethylamino)-methyl)phenyl)acetamide]
C#Cc1cc(Cl)c2nc(Nc3cc(CN(C)C)cc(NC(C)=O)c3)ncc2c1 [Example 7, N-(3-(8-Chloro-6-ethynylquinazolin-2-ylamino)-5((dimethylamino)methyl)-phenyl)acetamide]
C#Cc1ccc2nc(Nc3ccc(S(N)(=O)=O)cc3)ncc2c1 [Example 10, 4(6-Ethynylquinazolin-2-ylamino)benzenesulfonamide]
CC(C)NC(=O)c1ccc(Nc2ncc3cc(-c4nccs4)ccc3n2)cc1 [Example 12, N-Isopropyl-4-(6-(thiazol-2-yl)quinazolin-2-ylamino)benzamide]
CC(C)NC(=O)c1ccc(Nc2ncc3cc(C#N)ccc3n2)cc1 [Example 13, 4-(6-Cyanoquinazolin-2-ylamino)-N-Isopropylbenzamide]
COc1cc(Br)c(Cl)c2cnc(Nc3cc(CN(C)C)cc(NC(C)=O)c3)nc12 [Example 14, N-(3-(6-Bromo-5-chloro-8-methoxyquinazolin-2-ylamino)-5-((dimethylamino)methyl)phenyl)acetamide]
NS(=O)(=O)c1ccc(Nc2ncc3cc(C(=O)O)ccc3n2)cc1 [Example 19, Methyl 2-(4-sulfamoylphenylamimo)quinazolin-6-carboxylic acid]
C#Cc1ccc2nc(Nc3ccc(C(=O)N4CCOCC4)cc3)ncc2c1Cl [Example 22, (4-(5-Chloro-6-ethynylquinazolin-2-ylamino)phenyl)(morpholino) methanone]
Fc1c(Br)ccc2nc(Nc3ccc(N4CCOCC4)cc3)ncc12 [Example 23, 6-Bromo-5-fluoro-N-(4-morpholinophenyl)quinazolin-2-amine]
C#Cc1ccc2nc(Nc3ccc(N4CCOCC4)cc3)ncc2c1F [Example 24, 6-Ethynyl-5-fluoro-N-(4-morpholinophenyl)quinazolin-2-amine]
NS(=O)(=O)c1ccc(Nc2ncc3cc(-c4nccs4)ccc3n2)cc1 [Example 27, 4-(6-(Thiazol-2-yl)quinazolin-2-ylamino)benzenesulfonamide]
CC(=O)Nc1cc(CN2CCOCC2)cc(Nc2ncc3cc(-c4cn[nH]c4)ccc3n2)c1 [Example 30, N-(3-(6-(1H-Pyrazol-4-yl)quinazolin-2-ylamino)-5-(morpholinomethyl)phenyl)acetamide]
CC(=O)Nc1cc(I)cc(Nc2ncc3cc(Br)ccc3n2)c1 [Example 31, N-(3-(6-Bromoquinazolin-2-ylamino)-5-iodophenyl)acetamide]
